Laboratory results reported in patent US20110301142A1, “ANTAGONISTS OF LYSOPHOSPHATIDIC ACID RECEPTORS” (priority 2008, published 2011).

Key:
[1] = system: Female C57BL/6 mice; assay: Mouse unilateral ureteral obstruction kidney fibrosis model; format: in vivo
Experimental: Female C57BL/6 mice (Harlan, 20-25 g) housed 4/cage will be given free access to food and water and allowed to acclimate for at least 7 days prior to test initiation. After the habituation phase, mice undergo unilateral ureteral obstruction (UUO) surgery or sham to left kidney. Briefly, a longitudinal, upper left incision is performed to expose the left kidney. The renal artery is located and 6/0 silk thread is passed between the artery and the ureter. The thread is looped around the ureter and knotted 3 times insuring full ligation of ureter. The kidney is returned to abdomen, the abdominal muscle is sutured and the skin is stapled closed. Mice are returned to their cages and monitored daily for the duration of the experiment. Test compound or vehicle is delivered po, ip or sc daily. The route and frequency of dosing is based on previously determined pharmacokinetic properties. All animals are sacrificed using inhaled isoflurane 4, 8 or 14 days after UUO surgery. […] Kidney tissue homogenates are analyzed for collagen levels using Sircol (Biocolor Ltd, UK). Fixed kidney tissue is also stained using hematoxylin and eosin (H&E) and trichrome and kidney fibrosis is determined by quantitative, computer-assisted densitometry of collagen in […] tissue sections using light microscopy. […] The resulting data are plotted using Graphpad prism and statistical differences between groups determined.

[2] = system: Female CD-1 mice; assay: Bleomycin-induced lung fibrosis model in mice; format: in vivo
Source text: Female CD-1 mice (Harlan, 25-30 g) are housed 4 per cage, given free access to food and water and allowed to acclimate for at least 7 days prior to test initiation. After the habituation phase, mice are lightly anesthetized with isoflurane (5% in 100% O2) and administered with bleomycin sulfate (0.01-5 U/kg, Henry Schein) via intratracheal instillation (Cuzzocrea S et al. Am J Physiol Lung Cell Mol. Physiol. 2007 May; 292(5):L1095-104. Epub 2007 Jan. 12.). Mice are returned to their cages and monitored daily for the duration of the experiment. Test compound or vehicle is delivered po, ip or sc daily. The route and frequency of dosing is based on previously determined pharmacokinetic properties. All animals are sacrificed using inhaled isoflurane 3, 7, 14, 21 or 28 days after bleomycin instillation. Following sacrifice, mice are intubated with a 20 gauge angiocatheter attached to a 1 ml syringe. Lungs are lavaged with saline to obtain bronchoalveolar lavage fluid (BALF) and then removed and fixed in 10% neutral buffered formalin for subsequent histopathological analysis. BALF is centrifuged for 10 min at 800×g to pellet the cells and the cell supernatant removed and frozen at −80° C. for subsequent protein analysis using the DC protein assay kit (Biorad, Hercules, Calif.) and soluble collagen analysis using Sircol (Biocolor Ltd, UK). BALF is analyzed for concentrations of inflammatory, pro-fibrotic and tissue injury biomarkers including transforming growth factor β1, hyaluronic acid, tissue inhibitor of metalloproteinase-1, matrix matelloproteinase-7, connective tissue growth factor and lactate dehydrogenase activity, using commercially available ELISA. The cell pellet is re-suspended in PBS. Total cell counts are then obtained using a Hemavet hematology system (Drew Scientific, Wayne, Pa.) and differential cells counts are determined using Shandon cytospin (Thermo Scientific, Waltham, Mass.). Lung tissue is stained using hematoxylin and eosin (H&E) and trichrome and lung fibrosis.is determined by semiquantitative histopathological scoring (Ashcroft T. et al. J. Clin. Path. 1988; 41; 4, 467-470.) using light microscopy (10× magnification) and quantitative, computer-assisted densitometry of collagen in lung tissue sections using light microscopy. The data are plotted using Graphpad prism and statistical differences between groups determined.

[3] = chronic setting (14 and 28 day), single bleomycin (1.5 units/kg) instillation
[4] = chronic setting, repeated bleomycin (3.0-5.0 units/kg/week) instillations
[5] = chronic setting (14-days only), single bleomycin instillation (3.0 units)

Cc1noc(-c2ccc(-c3ccc(CC(=O)O)cc3)cc2)c1NC(=O)O[C@H](C)c1ccccc1Cl [Compound 1-88, (4′-{4-[(R)-1-(2-Chloro-phenyl)-ethoxycarbonylamino]-3-methyl-isoxazol-5-yl}-biphenyl-4-yl)-acetic acid]
reduction of kidney fibrosis as compared to the untreated group [1]: at least 20%
efficacy at reducing lung tissue damage and fibrosis compared to pirfenidone ([2]; 14 day mouse bleomycin model): superior efficacy to pirfenidone
MMP7 concentration in BALF ([2]; acute setting (3 day)): significantly reduced
TGFβ1 concentration in BALF ([2]; acute setting (3 day)): significantly reduced
hyaluronan concentration in BALF ([2]; acute setting (3 day)): significantly reduced
lactate dehydrogenase activity (LDH; tissue injury marker) in BALF ([2]; acute setting (3 day)): significantly reduced
tissue inhibitor of metalloproteinase-1 (TIMP-1; pro-fibrotic marker) concentration in BALF ([2]; acute setting (3 day)): significantly reduced
total protein in broncheoalveolar lavage fluid (BALF) ([2]; acute setting (3 day)): significantly reduced
fibrosis [2, 3]: decreased
inflammatory cell influx [2, 3]: decreased
mouse body weight [2, 3]: maintained
lung fibrosis [2, 4]: decreased
pulmonary resistance [2, 4]: decreased

Cc1noc(-c2ccc(-c3ccc(CC(=O)O)cc3)cc2)c1NC(=O)O[C@H](C)c1ccccc1 [Compound 1-115]
reduction of kidney fibrosis as compared to the untreated group [1]: 55%
lactate in the BALF ([2]; acute setting (3-day)): reduced
tissue inhibitor of metalloproteinase-1 (TIMP-1; pro-fibrotic marker) concentration in BALF ([2]; acute setting (3 day)): reduced
total protein in broncheoalveolar lavage fluid (BALF) ([2]; acute setting (3 day)): reduced
fibrosis [2, 5]: decreased
inflammatory cell influx [2, 5]: decreased
